In patent US12545639B2, “3-substituted phenylamidine compounds, preparation and use thereof” (PI INDUSTRIES LTD., priority 2019, dated 2026):

Tests used:
Phakopsora pachyrhizi = Phakopsora pachyrhizi test in soybean, preventive, in vivo on plants; conditions: in Glycine max, read-out: Efficacy (% control), disease severity compared to the untreated check
Rhizoctonia solani = Rhizoctonia solani (rice sheath blight/potato black scurf) in vitro test, radial growth on potato dextrose agar; type: cell-based; conditions: 168 h, 300 ppm in potato dextrose agar, 25° C., 60% relative humidity, seven days, read-out: control compared to the untreated check (radial growth)
Pyricularia oryzae = assay: microbe, parasite or virus in culture; type: cell-based; conditions: 168 h, read-out: control compared to the untreated check (radial growth)
Alternaria solani = Alternaria solani (early blight of tomato/potato) in vitro test, radial growth on potato dextrose agar; type: cell-based; conditions: 168 h, 300 ppm in potato dextrose agar, 25° C., 60% relative humidity, seven days, read-out: control compared to the untreated check (radial growth)

SMILES	pest or weed control at 500 ppm (Phakopsora pachyrhizi) [%]	inhibition of growth at 300 ppm (Rhizoctonia solani) [%]	inhibition of growth at 300 ppm (Pyricularia oryzae) [%]	inhibition of growth at 300 ppm (Alternaria solani) [%]
CCN(C)C=Nc1cc(C)cc(Cc2cccc(OC)c2)c1Cl [Compound 28, N′-(2-chloro-3-(3-methoxybenzyl)-5-methylphenyl)-N-ethyl-N-methylformimidamide]	≥ 70	≥ 70	≥ 70	≥ 70
CCN(C)C=Nc1cc(Cl)cc(Cc2cccc(C(F)(F)F)c2)c1C [Compound 127, N′-(5-chloro-2-methyl-3-(3-(trifluoromethyl)benzyl)phenyl)-N-ethyl-N-methylformimidamide]	≥ 70	≥ 70	≥ 70	≥ 70
CCN(C)C=Nc1cc(OC)cc(Cc2cc(F)ccc2C)c1C [Compound 281, N-ethyl-N′-(3-(5-fluoro-2-methylbenzyl)-5-methoxy-2-methylphenyl)-N-methylformimidamide]	≥ 70			
CCN(C)C=Nc1cc(OC)cc(Cc2ccccc2)c1C [Compound 298, N′-(3-benzyl-5-methoxy-2-methylphenyl)-N-ethyl-N-methylformimidamide]	≥ 70	≥ 70	≥ 70	≥ 70
CCN(C)C=Nc1cc(C)cc(Nc2cnccn2)c1Cl [Compound 194, N′-(2-chloro-5-methyl-3-(pyrazin-2-ylamino)phenyl)-N-ethyl-N-methylformimidamide]	≥ 70			
CCN(C)C=Nc1cc(F)cc(N(C)c2ncccc2C(F)(F)F)c1C [Compound 153, N-ethyl-N′-(5-fluoro-2-methyl-3-(methyl(3-(trifluoromethyl)pyridin-2-yl)amino)phenyl)-N-methylformimidamide]	≥ 70			≥ 70
CCN(C)C=Nc1cc(C)cc(Cc2cccnc2)c1Cl [Compound 66, N′-(2-chloro-5-methyl-3-(pyridin-3-ylmethyl)phenyl)-N-ethyl-N-methylformimidamide]	≥ 70		≥ 70	≥ 70
CCN(C)C=Nc1cc(Cl)cc(Cc2ccccc2C#N)c1C [Compound 104, N′-(5-chloro-3-(2-cyanobenzyl)-2-methylphenyl)-N-ethyl-N-methylformimidamide]	≥ 70	≥ 70	≥ 70	≥ 70
CCN(C)C=Nc1cc(OC)cc(Cc2ccc(F)c(Cl)c2)c1C [Compound 282, N′-(3-(3-chloro-4-fluorobenzyl)-5-methoxy-2-methylphenyl)-N-ethyl-N-methylformimidamide]	≥ 70			
CCN(C)C=Nc1cc(C)cc(Cc2cccc(C(F)(F)F)c2)c1Cl [Compound 53, N′-(2-chloro-5-methyl-3-(3-(trifluoromethyl)benzyl)phenyl)-N-ethyl-N-methylformimidamide]	≥ 70			≥ 70
CCN(C)C=Nc1cc(F)cc(Nc2cnccn2)c1C [Compound 193, N-ethyl-N′-(5-fluoro-2-methyl-3-(pyrazin-2-ylamino)phenyl)-N-methylformimidamide]	≥ 70			
CCN(C)C=Nc1cc(OC)cc(Cc2cccc(C)c2)c1C [Compound 278, N-ethyl-N′-(5-methoxy-2-methyl-3-(3-methylbenzyl)phenyl)-N-methylformimidamide]	≥ 70			
CCN(C)C=Nc1cc(OC)cc(N(C)c2ccccc2OC)c1C [Compound 270, N-ethyl-N′-(5-methoxy-3-((2-methoxyphenyl)(methyl)amino)-2-methylphenyl)-N-methylformimidamide]	≥ 70			
CCN(C)C=Nc1cc(OC)cc(Cc2ccc(Cl)cc2)c1C [Compound 279, N′-(3-(4-chlorobenzyl)-5-methoxy-2-methylphenyl)-N-ethyl-N-methylformimidamide]	≥ 70			
CCN(C)C=Nc1cc(F)cc(Nc2ccccn2)c1C [Compound 95, N-ethyl-N′-(5-fluoro-2-methyl-3-(pyridin-2-ylamino)phenyl)-N-methylformimidamide]	≥ 70			
CCN(C)C=Nc1cc(C)cc(Nc2ncccc2C)c1Cl [Compound 86, N′-(2-chloro-5-methyl-3-((3-methylpyridin-2-yl)amino)phenyl)-N-ethyl-N-methylformimidamide]	≥ 70		≥ 70	≥ 70
CCN(C)C=Nc1cc(Cl)cc(Nc2ccc3ncsc3c2)c1C [Compound 242, N′-(3-(benzo[d]thiazol-6-ylamino)-5-chloro-2-methylphenyl)-N-ethyl-N-methylformimidamide]	≥ 70	≥ 70	≥ 70	≥ 70

SMILES	pest or weed control at 500 ppm (Phakopsora pachyrhizi) [%]	inhibition of growth at 300 ppm (Rhizoctonia solani) [%]	inhibition of growth at 300 ppm (Pyricularia oryzae) [%]	inhibition of growth at 300 ppm (Alternaria solani) [%]
CCN(C)C=Nc1cc(C)cc(N(C)c2ncccn2)c1Cl [Compound 192, N′-(2-chloro-5-methyl-3-(methyl(pyrimidin-2-yl)amino)phenyl)-N-ethyl-N-methylformimidamide]	≥ 70			
CCN(C)C=Nc1cc(C)cc(Cc2ccc(F)c(C(F)(F)F)c2)c1Cl [Compound 218, N′-(2-chloro-3-(4-fluoro-3-(trifluoromethyl)benzyl)-5-methylphenyl)-N-ethyl-N-methylformimidamide]	≥ 70	≥ 70	≥ 70	≥ 70
CCN(C)C=Nc1cc(C)cc(Nc2cc(C)cc(F)c2)c1Cl [Compound 111, N′-(2-chloro-3-((3-fluoro-5-methylphenyl)amino)-5-methylphenyl)-N-ethyl-N-methylformimidamide]	≥ 70		≥ 70	
CCN(C)C=Nc1cc(C)cc(NCc2cnc(C)cn2)c1Cl [Compound 196, N′-(2-chloro-5-methyl-3-(((5-methylpyrazin-2-yl)methyl)amino)phenyl)-N-ethyl-N-methylformimidamide]	≥ 70			
CCN(C)C=Nc1cc(Cl)cc(Nc2cnccn2)c1C [Compound 211, N′-(5-chloro-2-methyl-3-(pyrazin-2-ylamino)phenyl)-N-ethyl-N-methylformimidamide]	≥ 70			
CCN(C)C=Nc1cc(F)cc(N(C)c2ccccn2)c1C [Compound 109, N-ethyl-N′-(5-fluoro-2-methyl-3-(methyl(pyridin-2-yl)amino)phenyl)-N-methylformimidamide]	≥ 70			
CCN(C)C=Nc1cc(C)cc(Nc2ccccn2)c1Cl [Compound 85, N′-(2-chloro-5-methyl-3-(pyridin-2-ylamino)phenyl)-N-ethyl-N-methylformimidamide]	≥ 70			≥ 70
CCN(C)C=Nc1cc(F)cc(Nc2ncccn2)c1C [Compound 187, N-ethyl-N′-(5-fluoro-2-methyl-3-(pyrimidin-2-ylamino)phenyl)-N-methylformimidamide]	≥ 70			
CCc1cccc(N(C)c2cc(F)cc(N=CN(C)CC)c2C)n1 [Compound 239, N-ethyl-N′-(3-((6-ethylpyridin-2-yl)(methyl)amino)-5-fluoro-2-methylphenyl)-N-methylformimidamide]	≥ 70	≥ 70		≥ 70
CCN(C)C=Nc1cc(C)cc(N(C)c2ccc3c(c2)OCCO3)c1Cl [Compound 184, N′-(2-chloro-3-((2,3-dihydrobenzo[b][1,4]dioxin-6-yl)(methyl)amino)-5-methylphenyl)-N-ethyl-N-methylformimidamide]	≥ 70			
CCN(C)C=Nc1cc(C)cc(N(C)c2ncccc2C(F)(F)F)c1Cl [Compound 157, N′-(2-chloro-5-methyl-3-(methyl(3-(trifluoromethyl)pyridin-2-yl)amino)phenyl)-N-ethyl-N-methylformimidamide]	≥ 70		≥ 70	≥ 70
CCN(C)C=Nc1cc(C)cc(N(C)c2cnccn2)c1Cl [Compound 210, N′-(2-chloro-5-methyl-3-(methyl(pyrazin-2-yl)amino)phenyl)-N-ethyl-N-methylformimidamide]	≥ 70			
CCN(C)C=Nc1cc(OC)cc(N(C)c2ccc(F)c(OC)c2)c1C [Compound 284, N-ethyl-N′-(3-((4-fluoro-3-methoxyphenyl)(methyl)amino)-5-methoxy-2-methylphenyl)-N-methylformimidamide]	≥ 70			
CCN(C)C=Nc1cc(C)cc(Cc2ccc(F)cc2Br)c1Cl [Compound 215, N′-(3-(2-bromo-4-fluorobenzyl)-2-chloro-5-methylphenyl)-N-ethyl-N-methylformimidamide]	≥ 70			
CCN(C)C=Nc1cc(C)cc(NC(C)Cc2cnccn2)c1Cl (centres unmarked) [Compound 195, N′-(2-chloro-5-methyl-3-((1-(pyrazin-2-yl)propan-2-yl)amino)phenyl)-N-ethyl-N-methylformimidamide]	≥ 70			
CCN(C)C=Nc1cc(C)cc(N(C)c2ccc(OC)cc2)c1Cl [Compound 64, N′-(2-chloro-3-((4-methoxyphenyl)(methyl)amino)-5-methylphenyl)-N-ethyl-N-methylformimidamide]		≥ 70	≥ 70	≥ 70
CCN(C)C=Nc1cc(Cl)cc(Nc2ccccc2)c1C [Compound 155, N′-(5-chloro-2-methyl-3-(phenylamino)phenyl)-N-ethyl-N-methylformimidamide]	≥ 70		≥ 70	≥ 70
